Measurements reported in patent publication US11571460B2 (priority 2017, dated 2023).

Columns and labels:
[1] = system: Lewis lung carcinoma cells; test: Tumor growth and survival in mice injected subcutaneously with Lewis lung carcinoma cells; assay type: in vivo, C57BL/6 mice
Description: A cancer growth rate in the control group was fast, but the cancer growth in the melittin-treated group was late.
(§1) Lewis lung carcinoma cells were mixed with a Matrigel matrix (Coming, N.Y., USA) to generate a tumor model. Male C57BL/6 wild-type mice (6 to 8 weeks old) were inoculated subcutaneously in the right flank with 5×10^4 cells per mouse. […] Before 3 days of tumor injection, macrophage deficiency was performed by clodronate liposomes (first dose of 200 μl per mouse, maintenance dose of 100 μl intraperitoneally every 4 days). Clodronate liposome and control liposome were purchased from FormuMax (Sunnyvale, Calif., USA). A tumor size was monitored every 2 to 3 days by measuring two opposite diameters (volume=length×width×width/2). If the tumor size exceeded 5% of the body weight, the mice were sacrificed for a next experiment set. Thereafter, the tumor and the spleen were surgically removed.

[2] = system: M1-type bone marrow-derived macrophages; test: Intracellular ROS production by H2DCFDA staining; assay type: cell-based, mouse; conditions: melittin-treated vs control, 24 hours
Description: The cells were added with 5 μM C2′,7′-dichlorodihydrofluorescein diacetate (H2DCFDA; molecular probe) and cultured at 37° C. for 30 minutes. The H2DCFDA-containing medium was removed and the cells were washed twice with preheated PBS. After the cells were collected, ROS production levels were immediately analyzed using flow cytometry.

[3] = system: bone marrow-derived macrophages (BMDM); test: Quantitative real-time PCR in bone marrow-derived macrophages; assay type: cell-based, mouse
Description: (§2) Cells were harvested as previously described to generate mouse bone marrow-derived macrophages. The cells were cultured for 7 days in an RPMI-1640 complete culture medium containing 10 ng/ml of mouse recombinant M-CSF (R & D systems, Minneapolis, Minn., USA). After the cells were differentiated into M0 macrophages, the cells were smeared in a 6-well plate (1×10^6 cells/well) and cultured overnight under 100 ng/ml LPS or 20 ng/ml mouse recombinant IL-4 (R & D system) to induce differentiation of M1 or M2 phenotype macrophages.
Quantitative real time PCR was performed according to previous reports. Data were expressed as […] for experimental genes, normalized to GAPDH, and expressed as a fold change compared to an LPS or IL-4 untreated control group. The following primers were used: Gapdh(for: […] (SEC) ID NO: 1); rev: […] (SEQ ID NO: 2)), Tnf-α(for: TTCTG […] (SEQ ID NO: 3); rev: GTAT […] (SEQ ID NO: 4), Mrc1/CD206(for: […] (SEQ ID NO: 5); rev: GGTT […] (SEQ ID NO: 6)), I1-10(for: […] (SEQ ID NO: 7); rev: […] (SEQ ID NO: 8)), Tgf-β(for: […] (SEQ ID NO: 9); rev: […] (SEQ ID NO: 10)), Vegf(for: GGAGA […] (SEQ ID NO: 11); rev: […](SEQ ID NO: 12)), F1t1/VEGFR1(for: […] (SEQ. ID NO: 13); rev: […] (SEQ ID NO: 14)).

[4] = system: bone marrow-derived macrophages (BMDM); test: Western blot analysis of BMDM; assay type: cell-based, mouse
Description: as §2
Total proteins were extracted using a RIPA buffer from melittin or PBS treated-bone marrow-derived macrophages and quantified by Bio-Rad analysis. 20 μg of protein was isolated on an 8% SDS Tris-glycine gel and transferred to a nitro cellulose cell membrane (Invitrogen). The following antibodies and dilution factors were used: VEGF goat polyclonal antibody (sc-1836, 1:1000, Santa Cruz), actin goat polyclonal antibody (sc-1616, 1:1000, Santa Cruz), […] CD206 (MCA2235GA 1:200, AbD serotec), anti-goat IgG conjugated to HRP (SA007, 1:1000, GenDEPOT), and anti-rat IgG bound to HRP (405405, 1:1000, Biolegend). Protein bands were visualized using an ECL solution (GE healthcare) and measured with Image J software. The strength of the protein has been normalized above that of actin.

splenocytes = test: Flow cytometry of immune cells in splenocytes of tumor-bearing mice; assay type: in vivo
Description: A tissue was dissociated by cutting the tumor into thin pieces and gently stirring in DNase I (1 U/ml; Roche, Indianapolis, trypsin-EDTA (Gibco)) under DMEM (Welgene) preheated at 37° C. for 1 hour. The tissue was mechanically dissociated in a 100 μm nylon mesh strainer, then single cells passed through a 40 μm nylon mesh strainer, and the spleen was mechanically dissociated with a 40 μm nylon mesh strainer. RBC was dissolved for 5 minutes in a 1× pharmlyse buffer.
The cells were stained with fluorescent tag antibodies. All data were detected by a FACS Calibur flow cytometer and analyzed with FlowJo software. CD45-FITC, CD3-FITC, CD4-PE, CD4-FITC, CD8-APC, CD11b-APC, CD11 c-PE, CD25 (CD12-FITC)-PE, CD25-APC, B220-FITC, CD19-PE, CD86-APC, and Foxp3-Alexa Fluor647 were purchased from BD bioscience and F4/80-PE and CD206-APC were purchased from Biolegend (San Diego, Calif., USA).
as §1
Screening of the immune cells was performed by flow cytometry on CD4^+ T cells, CD8^+ T cells, B cells, dendritic cells, and macrophages from splenocytes of mice with cancer. The flow cytometry was performed in the same manner as Example 3-2.

tumor tissue = test: Immunofluorescence confocal microscopy of VEGF and CD31 in tumor tissue; assay type: in vivo, mice
Description: The tumor of inoculated mice was fixed overnight with paraformaldehyde, dehydrated, and then placed in paraffin. Slices (5 μm thick) of the inserted tissue were cut in a rotary microtome and deparaffinized. The antigens of the slides were recovered by an autoclave in a trisodium citrate buffer (pH 6) for 1 minute, washed with PBS and then blocked for 1 hour with 1.5% BSA containing 0.2% Triton X-100. The slides were cultured overnight at 4° C. with anti-VEGF and anti-CD31 primary antibodies (1:200, Santa Cruz Biotechnology, Santa Cruz, Calif., USA).
All tissue slices were cultured at room temperature for 1 hour and then visualized with an alexa-488 or alexa-594 conjugated secondary antibody (1:500, Invitrogen). All the antibodies were diluted with a 0.5% BSA solution and cultured in a wet chamber. The slides were fixed with a DAPI solution and analyzed by laser scanning confocal microscopy (Bio-Rad, Richmond, Calif., USA). All images were captured with LSM and total integration density was measured with image J software.

[5] = melittin-treated tumor-bearing mice

## CC[C@H](C)[C@H](NC(=O)CN)C(=O)NCC(=O)N[C@@H](C)C(=O)N[C@H](C(=O)N[C@@H](CC(C)C)C(=O)N[C@@H](CCCCN)C(=O)N[C@H](C(=O)N[C@@H](CC(C)C)C(=O)N[C@H](C(=O)N[C@H](C(=O)NCC(=O)N[C@@H](CC(C)C)C(=O)N1CCC[C@H]1C(=O)N[C@@H](C)C(=O)N[C@@H](CC(C)C)C(=O)N[C@H](C(=O)N[C@@H](CO)C(=O)N[C@@H](Cc1c[nH]c2ccccc12)C(=O)N[C@H](C(=O)N[C@@H](CCCCN)C(=O)N[C@@H](CCCNC(=N)N)C(=O)N[C@@H](CCCCN)C(=O)N[C@@H](CCCNC(=N)N)C(=O)N[C@@H](CCC(N)=O)C(=O)N[C@@H](CCC(N)=O)C(N)=O)[C@@H](C)CC)[C@@H](C)CC)[C@@H](C)O)[C@@H](C)O)C(C)C)C(C)C [melittin]
[1]; 0.5 mg/kg melittin peptide intraperitoneal, after 13 days of administration
  cancer growth reduced compared to the control group: 40%
[1]; 0.5 mg/kg melittin peptide intraperitoneal, day 15
  cancer growth suppressed compared to the control group: about 45%
[1]; tumor-bearing mice
  survival period vs control group (PBS-treated), Mantel-Cox analysis: significantly longer
[2]
  intracellular ROS levels: no difference
[3]; LPS stimulation
  gene level of TNF-α: did not affect
[3]; M2-type BMDM (IL-4)
  gene expression level of IL-10: not changed
  gene expression level of TGF-β: not changed
  mRNA level for Mrc1/Cd206 compared to the control group: significantly reduced
  mRNA level for Vegf compared to the control group: significantly reduced
[4]
  expression level of CD206 protein: reduced
  expression level of VEGF protein: reduced
splenocytes; control vs melittin-treated groups
  other immune cells from total splenocytes: no percentage change
splenocytes; [5]
  CD45+F480+ macrophages in splenocytes: 5.10±0.42
  number of regulatory T cells in splenocytes: decreased slightly
splenocytes; spleen
  level of M1 or M2 type macrophages in splenocytes: not changed
Tumor tissue; 0.5 mg/kg and 1 mg/kg vs PBS control group
  integrated density of VEGF (image J): significant difference
Tumor tissue; compared to a PBS group
  level of CD31 by immunofluorescence staining: decrease
  level of VEGF by immunofluorescence staining: decrease
